Test results published in patent EP0550016A1, “Novel quinolone carboxylic acid derivatives and processes for preparing same” (KOREA RESEARCH INSTITUTE OF CHEMICAL TECHNOLOGY, priority 1991, dated 1993).
≈ marks a conversion by molar mass, not a printed value. Where two headings read alike, the source gives them in different places.

Key:
[1] = test system: Klebsiella aerogenes 1522 E; test: In vitro anti-bacterial activity test (MIC, two-fold dilution method) against the standard strains; assay type: cell-based; details: Table 1 strain 18: Klebsiella aerogenes 1522 E
Escherichia coli DC 0 [2] = test: as above; assay type: cell-based; details: DC0; Table 1 strain 8: Escherichia coli DC 0
[3] = test system: Pseudomonas aeruginosa 1771 M; test: as above; assay type: cell-based; details: Table 1 strain 15: Pseudomonas aeruginosa 1771 M
[4] = test system: Streptococcus pyogenes 308 A; test: as above; assay type: cell-based; details: Table 1 strain 1: Streptococcus pyogenes 308 A
[5] = test system: Staphylococcus aureus 285; test: as above; assay type: cell-based; details: Table 1 strain 5: Staphylococcus aureus 285; read-out: MIC
Acute Toxicity Test = details: mouse, in vivo, female ICR mice, day 14, read-out: Acute Toxicity(LD₅₀)
Method: Test compounds were administered to female ICR mice weighing 20 to 25g and on day 14, LD₅₀ was calculated from the number of survived mice by the probit analysis.

[6] = test system: Pseudomonas aeruginosa 9027; test: In vitro anti-bacterial activity test (MIC, two-fold dilution method) against the standard strains; assay type: cell-based; details: Table 1 strain 12: Pseudomonas aeruginosa 9027
[7] = test system: Staphylococcus aureus SG 511; test: as above; assay type: cell-based; details: SG511; Table 1 strain 4: Staphylococcus aureus SG 511
[8] = test system: Enterobacter cloacae P 99; test: as above; assay type: cell-based; details: P99; Table 1 strain 19: Enterobacter cloacae P 99
Escherichia coli DC 0 [9] = test: as above; assay type: cell-based; details: DC0; Table 1 strain 7: Escherichia coli DC 0
[10] = test system: Pseudomonas aeruginosa 1592 E; test: as above; assay type: cell-based; details: Table 1 strain 13: Pseudomonas aeruginosa 1592 E
[11] = test system: Streptococcus pyogenes 77 A; test: as above; assay type: cell-based; details: Table 1 strain 2: Streptococcus pyogenes 77 A; read-out: MIC
[12] = test system: Staphylococcus aureus 503; test: as above; assay type: cell-based; details: Table 1 strain 6: Staphylococcus aureus 503; read-out: MIC
Escherichia coli OTEM = test: as above; assay type: cell-based; details: Table 1 strain 10: Escherichia coli OTEM
Escherichia coli 1507 E = test: as above; assay type: cell-based; details: Table 1 strain 11: Escherichia coli 1507 E
Salmonella typhimurium = test: as above; assay type: cell-based; details: Salmonella enterica; Table 1 strain 16: Salmonella typhimurium
[13] = test system: Enterobacter cloacae 1321 E; test: as above; assay type: cell-based; details: Table 1 strain 20: Enterobacter cloacae 1321 E
Escherichia coli DC 2 = test: as above; assay type: cell-based; details: DC2
[14] = test system: Pseudomonas aeruginosa 1771; test: as above; assay type: cell-based; details: Table 1 strain 14: Pseudomonas aeruginosa 1771
[15] = test system: Streptococcus faecium MD 8b; test: as above; assay type: cell-based; details: Enterococcus faecium, MD8B; Table 1 strain 3: Streptococcus faecium MD 8b; read-out: MIC
[16] = test system: Klebsiella aerogenes 1082 E; test: as above; assay type: cell-based; details: Table 1 strain 17: Klebsiella aerogenes 1082 E
S. aureus 17740 = test: Preventive effect against the systemic infection; assay type: in vivo; details: Staphylococcus aureus, 168 h, NMRI mice, survival on day 7, read-out: ED₅₀
Method: (§1) 10 fold of the pathogen which leads to 100% lethality were injected intraperitoneally to male and female NMRI mice weighing 18 to 20g. Immediately and after 4 hours, the dose of test compounds which was determined by two-fold serial dilution method was administered orally or subcutaneously; and on day 7, the effectiveness was evaluated in terms of ED₅₀ calculated from the number of survived mice by the probit analysis.

P. mirabilis = test: Preventive effect against the systemic infection; assay type: in vivo; details: Proteus mirabilis, 168 h, NMRI mice, survival on day 7, read-out: ED₅₀
Method: as §1

Row | SMILES | MIC [1] [µg/mL] | MIC (Escherichia coli DC 0 [2]) [µg/mL] | MIC [3] [µg/mL] | MIC [4] [µg/mL] | MIC [5] [µg/mL] | LD50 (Acute Toxicity Test; ip, Intraperitoneal Injection) [mg/kg] | LD50 (Acute Toxicity Test; Oral Administration) [mg/kg] | MIC [6] [µg/mL] | MIC [7] [µg/mL] | MIC [8] [µg/mL] | MIC (Escherichia coli DC 0 [9]) [µg/mL] | MIC [10] [µg/mL] | MIC [11] [µg/mL] | MIC [12] [µg/mL] | MIC (Escherichia coli OTEM) [µg/mL] | MIC (Escherichia coli 1507 E) [µg/mL] | MIC (Salmonella typhimurium) [µg/mL] | MIC [13] [µg/mL] | MIC [14] [µg/mL] | MIC [15] [µg/mL] | other results
1 | NC1CC12CCN(c1c(F)cc3c(=O)c(C(=O)O)cn(C4CC4)c3c1F)C2 (centres unmarked) [Example 1, 7-(1-amino-5-azaspiro[2,4]heptane-5-yl)-1-cyclopropyl-6,8-difluoro-1,4-dihydro-4-oxoquinoline-3-carboxylic acid] | 0.013 (≈ 0.0346 µM) | 0.195 (≈ 0.519 µM) | 0.195 (≈ 0.519 µM) | 0.195 (≈ 0.519 µM) | 0.025 (≈ 0.0666 µM) | 605 | 3800 | 0.781 (≈ 2.08 µM) | 0.025 (≈ 0.0666 µM) | 0.013 (≈ 0.0346 µM) | 0.004 (≈ 0.0107 µM) | 0.391 (≈ 1.04 µM) | 0.098 (≈ 0.261 µM) | 0.025 (≈ 0.0666 µM) | 0.013 (≈ 0.0346 µM) | 0.013 (≈ 0.0346 µM) | 0.013 (≈ 0.0346 µM) | 0.004 (≈ 0.0107 µM) | 0.391 (≈ 1.04 µM) | 0.195 (≈ 0.519 µM) | MIC (Escherichia coli DC 2; Table 1 strain 9: Escherichia coli DC 2, read-out: MIC): 0.049 µg/mL (≈ 0.131 µM); MIC [16]: 0.004 µg/mL (≈ 0.0107 µM); ED50 (S. aureus 17740; Oral Administration): 128 mg/kg; ED50 (S. aureus 17740; sc, Subcutaneous Injection): 16.8 mg/kg; ED50 (P. mirabilis; Oral Administration): 7.13 mg/kg; ED50 (P. mirabilis; sc, Subcutaneous Injection): 1.36 mg/kg
2 | CC(O)C(=O)O.NC1CC12CCN(c1c(F)cc3c(=O)c(C(=O)O)cn(C4CC4)c3c1F)C2 (centres unmarked) [Example 2, 7-(1-amino-5-azaspiro[2,4]heptane-5-yl)-1-cyclopropyl-6,8-difluoro-1,4-dihydro-4-oxoquinoline-3-carboxylic acid lactate] | 0.025 | 0.195 | 0.098 | 0.195 | 0.025 | 580 | 3800 | 0.781 | 0.025 | 0.013 | 0.004 | 0.781 | 0.098 | 0.025 | 0.025 | 0.025 | 0.013 | 0.007 | 0.781 | 0.098 | MIC (Escherichia coli DC 2; Escherichia coli): 0.049 µg/mL; MIC [16]: 0.013 µg/mL; ED50 (S. aureus 17740; Oral Administration): 49.7 mg/kg; ED50 (S. aureus 17740; sc, Subcutaneous Injection): 97.6 mg/kg
